Laboratory results as given in PubChem BioAssay AID248 (DTP/NCI, 2004).
Several values for one entry are separate records, joined by “and”; a condition that tells them apart may be missing. Equal values may be shown once. Toxic doses and inconclusive results are not listed. No stated cut-off is given here; in the data, active means T/C of 150% or more; inactive means T/C below 125%.

Test system: L1210 leukemia ip in BDF1 mice, survival T/C
Test: NCI In Vivo Anticancer Drug Screen. Data for tumor model L1210 Leukemia (intraperitoneal) in B6D2F1 (BDF1) mice
Settings: higher = longer survival
Outline: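 Transplantable tumor model; survival measured in treated vs vehicle control mice. Value = treated/control.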

Measured: T/C

Cc1c2ccncc2c(C)c2c1[nH]c1ccccc12
inactive: endpoint: mean survival time, dose: 0.31 mg/kg/injection, schedule: Q#A X018 (ip), vehicle: other 102 % of control | endpoint: mean survival time, dose: 0.5 mg/kg/injection, schedule: Q01DX005 (ip), vehicle: other 105 % of control | endpoint: mean survival time, dose: 0.59 mg/kg/injection, schedule: Q03HX008 (ip), vehicle: other 94 % of control | endpoint: mean survival time, dose: 1.0 mg/kg/injection, schedule: Q01DX009 (ip), vehicle: other 111 % of control | endpoint: mean survival time, dose: 1.0 mg/kg/injection, schedule: Q01DX009 (ip), vehicle: water 107 % of control and 110 % of control | endpoint: mean survival time, dose: 1.0 mg/kg/injection, schedule: Q03HX024 (ip), vehicle: acid diluted with saline 110 % of control | endpoint: mean survival time, dose: 1.18 mg/kg/injection, schedule: Q03HX008 (ip), vehicle: other 98 % of control | endpoint: mean survival time, dose: 1.25 mg/kg/injection, schedule: Q#A X018 (ip), vehicle: other 110 % of control | endpoint: mean survival time, dose: 2.0 mg/kg/injection, schedule: Q01DX009 (ip), vehicle: other 111 % of control | endpoint: mean survival time, dose: 2.0 mg/kg/injection, schedule: Q03HX016 (ip), vehicle: clinical formulation 105 % of control | endpoint: mean survival time, dose: 2.0 mg/kg/injection, schedule: Q03HX016 (oral), vehicle: clinical formulation 95 % of control | endpoint: mean survival time, dose: 3.12 mg/kg/injection, schedule: Q01DX005 (oral), vehicle: saline 95 % of control | endpoint: mean survival time, dose: 3.12 mg/kg/injection, schedule: Q01DX009 (ip), vehicle: clinical formulation 102 % of control | endpoint: mean survival time, dose: 3.12 mg/kg/injection, schedule: Q04DX003 (ip), vehicle: clinical formulation 108 % of control | endpoint: mean survival time, dose: 3.12 mg/kg/injection, schedule: Q04DX009 (ip), vehicle: citric acid 101 % of control | endpoint: mean survival time, dose: 4.0 mg/kg/injection, schedule: Q01DX009 (oral), vehicle: clinical formulation 102 % of control | endpoint: mean survival time, dose: 4.0 mg/kg/injection, schedule: Q03HX008 (oral), vehicle: clinical formulation 109 % of control | endpoint: mean survival time, dose: 4.0 mg/kg/injection, schedule: Q03HX016 (oral), vehicle: clinical formulation 105 % of control | endpoint: mean survival time, dose: 4.0 mg/kg/injection, schedule: Q03HX024 (oral), vehicle: clinical formulation 110 % of control | endpoint: mean survival time, dose: 5.0 mg/kg/injection, schedule: Q01DX015 (oral), vehicle: carboxymethylcellulose (CMC) 105 % of control | endpoint: mean survival time, dose: 6.2 mg/kg/injection, schedule: Q01DX001 (ip), vehicle: saline 108 % of control | endpoint: mean survival time, dose: 6.2 mg/kg/injection, schedule: Q01DX Z (oral), vehicle: saline 110 % of control | endpoint: mean survival time, dose: 6.25 mg/kg/injection, schedule: Q01DX005 (oral), vehicle: saline 104 % of control | endpoint: mean survival time, dose: 6.25 mg/kg/injection, schedule: Q01DX005 (oral), vehicle: water 106 % of control | endpoint: mean survival time, dose: 6.25 mg/kg/injection, schedule: Q04DX003 (ip), vehicle: citric acid 107 % of control | endpoint: mean survival time, dose: 6.25 mg/kg/injection, schedule: Q04DX003 (ip), vehicle: clinical formulation 109 % of control and 110 % of control | endpoint: mean survival time, dose: 6.25 mg/kg/injection, schedule: Q04DX009 (ip), vehicle: citric acid 110 % of control | endpoint: mean survival time, dose: 8.0 mg/kg/injection, schedule: Q04DX003 (ip), vehicle: Klucel (hydroxypropylcellulose) (HPC) 110 % of control | endpoint: mean survival time, dose: 8.0 mg/kg/injection, schedule: Q04DX003 (ip), vehicle: acid diluted with saline 109 % of control | endpoint: mean survival time, dose: 9.37 mg/kg/injection, schedule: Q01DX001 (ip), vehicle: other 103 % of control | endpoint: mean survival time, dose: 9.37 mg/kg/injection, schedule: Q01DX001 (sc), vehicle: other 103 % of control and 104 % of control | endpoint: mean survival time, dose: 9.38 mg/kg/injection, schedule: Q01DX001 (ip), vehicle: other 100 % of control | endpoint: mean survival time, dose: 9.38 mg/kg/injection, schedule: Q04DX003 (ip), vehicle: clinical formulation 110 % of control | endpoint: mean survival time, dose: 10.0 mg/kg/injection, schedule: Q01DX015 (oral), vehicle: carboxymethylcellulose (CMC) 110 % of control | endpoint: mean survival time, dose: 12.5 mg/kg/injection, schedule: Q01DX005 (oral), vehicle: water 109 % of control | endpoint: mean survival time, dose: 12.5 mg/kg/injection, schedule: Q04DX003 (oral), vehicle: saline 106 % of control | endpoint: mean survival time, dose: 12.5 mg/kg/injection, schedule: Q04DX003 (oral), vehicle: water 104 % of control | endpoint: mean survival time, dose: 16.0 mg/kg/injection, schedule: Q03HX008 (ip), vehicle: clinical formulation 94 % of control | endpoint: mean survival time, dose: 16.0 mg/kg/injection, schedule: Q08DX002 (oral), vehicle: clinical formulation 100 % of control | endpoint: mean survival time, dose: 18.75 mg/kg/injection, schedule: Q01DX001 (sc), vehicle: other 107 % of control | endpoint: mean survival time, dose: 25.0 mg/kg/injection, schedule: Q01DX001 (oral), vehicle: saline with Tween-80 103 % of control | endpoint: mean survival time, dose: 25.0 mg/kg/injection, schedule: Q01DX001 (oral), vehicle: water 104 % of control | endpoint: mean survival time, dose: 25.0 mg/kg/injection, schedule: Q01DX009 (ip), vehicle: citric acid 108 % of control | endpoint: mean survival time, dose: 25.0 mg/kg/injection, schedule: Q01DX009 (ip), vehicle: clinical formulation 101 % of control | endpoint: mean survival time, dose: 25.0 mg/kg/injection, schedule: Q04DX003 (oral), vehicle: saline 104 % of control | endpoint: mean survival time, dose: 32.0 mg/kg/injection, schedule: Q01DX001 (oral), vehicle: clinical formulation 106 % of control | endpoint: mean survival time, dose: 32.0 mg/kg/injection, schedule: Q03HX008 (oral), vehicle: clinical formulation 110 % of control | endpoint: mean survival time, dose: 37.5 mg/kg/injection, schedule: Q01DX001 (oral), vehicle: other 110 % of control | endpoint: mean survival time, dose: 37.5 mg/kg/injection, schedule: Q01DX001 (sc), vehicle: saline 101 % of control and 109 % of control | endpoint: mean survival time, dose: 40.0 mg/kg/injection, schedule: Q#A X018 (ip), vehicle: other 105 % of control | endpoint: mean survival time, dose: 50.0 mg/kg/injection, schedule: Q01DX001 (oral), vehicle: water 104 % of control | endpoint: mean survival time, dose: 50.0 mg/kg/injection, schedule: Q01DX009 (ip), vehicle: saline with Tween-80 95 % of control | endpoint: mean survival time, dose: 50.0 mg/kg/injection, schedule: Q01DX009 (oral), vehicle: saline 110 % of control | endpoint: mean survival time, dose: 64.0 mg/kg/injection, schedule: Q04DX003 (ip), vehicle: Klucel (hydroxypropylcellulose) (HPC) 94 % of control and 95 % of control | endpoint: mean survival time, dose: 75.0 mg/kg/injection, schedule: Q01DX001 (oral), vehicle: saline 108 % of control | endpoint: mean survival time, dose: 75.0 mg/kg/injection, schedule: Q01DX001 (sc), vehicle: saline 103 % of control and 105 % of control | endpoint: mean survival time, dose: 75.0 mg/kg/injection, schedule: Q01DX009 (ip), vehicle: saline with Tween-80 98 % of control | endpoint: mean survival time, dose: 75.0 mg/kg/injection, schedule: Q04DX003 (ip), vehicle: clinical formulation 94 % of control | endpoint: mean survival time, dose: 75.0 mg/kg/injection, schedule: Q04DX003 (ip), vehicle: lactic acid 92 % of control | endpoint: mean survival time, dose: 80.0 mg/kg/injection, schedule: Q01DX009 (ip), vehicle: other 104 % of control | endpoint: mean survival time, dose: 80.0 mg/kg/injection, schedule: Q#A X018 (ip), vehicle: other 104 % of control | endpoint: mean survival time, dose: 80.0 mg/kg/injection, schedule: Q#A X018 (oral), vehicle: other 96 % of control | endpoint: mean survival time, dose: 100.0 mg/kg/injection, schedule: Q01DX009 (ip), vehicle: saline with Tween-80 93 % of control | endpoint: mean survival time, dose: 100.0 mg/kg/injection, schedule: Q04DX003 (oral), vehicle: water 110 % of control | endpoint: mean survival time, dose: 128.0 mg/kg/injection, schedule: Q01DX005 (ip), vehicle: saline 100 % of control | endpoint: mean survival time, dose: 128.0 mg/kg/injection, schedule: Q01DX009 (ip), vehicle: water 103 % of control and 108 % of control | endpoint: mean survival time, dose: 128.0 mg/kg/injection, schedule: Q08DX002 (ip), vehicle: clinical formulation 101 % of control | endpoint: mean survival time, dose: 150.0 mg/kg/injection, schedule: Q01DX001 (oral), vehicle: saline with Tween-80 108 % of control | endpoint: mean survival time, dose: 150.0 mg/kg/injection, schedule: Q01DX001 (sc), vehicle: saline 103 % of control and 110 % of control | endpoint: mean survival time, dose: 160.0 mg/kg/injection, schedule: Q01DX015 (oral), vehicle: carboxymethylcellulose (CMC) 104 % of control | endpoint: mean survival time, dose: 170.0 mg/kg/injection, schedule: Q01DX Z (oral), vehicle: saline 105 % of control | endpoint: mean survival time, dose: 200.0 mg/kg/injection, schedule: Q04DX003 (ip), vehicle: water 104 % of control | endpoint: mean survival time, dose: 256.0 mg/kg/injection, schedule: Q01DX005 (ip), vehicle: other 110 % of control | endpoint: mean survival time, dose: 256.0 mg/kg/injection, schedule: Q01DX009 (ip), vehicle: other 104 % of control | endpoint: mean survival time, dose: 300.0 mg/kg/injection, schedule: Q01DX001 (sc), vehicle: saline 110 % of control | endpoint: mean survival time, dose: 300.0 mg/kg/injection, schedule: Q04DX003 (ip), vehicle: saline with Tween-80 103 % of control | endpoint: mean survival time, dose: 300.0 mg/kg/injection, schedule: Q04DX003 (ip), vehicle: saline 100 % of control | endpoint: mean survival time, dose: 400.0 mg/kg/injection, schedule: Q04DX002 (ip), vehicle: Klucel (hydroxypropylcellulose) (HPC) 97 % of control | endpoint: mean survival time, dose: 400.0 mg/kg/injection, schedule: Q04DX003 (oral), vehicle: saline 93 % of control | endpoint: mean survival time, dose: 600.0 mg/kg/injection, schedule: Q01DX001 (ip), vehicle: Klucel (hydroxypropylcellulose) (HPC) 103 % of control | endpoint: mean survival time, dose: 600.0 mg/kg/injection, schedule: Q01DX001 (sc), vehicle: saline 109 % of control and 110 % of control | endpoint: mean survival time, dose: 960.0 mg/kg/injection, schedule: Q01DX001 (ip), vehicle: other 110 % of control | endpoint: median survival time, dose: 2.0 mg/kg/injection, schedule: Q03HX008 (oral), vehicle: other 100 % of control | endpoint: median survival time, dose: 4.0 mg/kg/injection, schedule: Q01DX009 (oral), vehicle: other 111 % of control | endpoint: median survival time, dose: 32.0 mg/kg/injection, schedule: Q01DX009 (oral), vehicle: other 100 % of control | endpoint: median survival time, dose: 32.0 mg/kg/injection, schedule: Q01DX009 (sc), vehicle: water 100 % of control | endpoint: median survival time, dose: 64.0 mg/kg/injection, schedule: Q01DX009 (oral), vehicle: other 94 % of control | endpoint: median survival time, dose: 256.0 mg/kg/injection, schedule: Q01DX001 (sc), vehicle: water 100 % of control | endpoint: median survival time, dose: 400.0 mg/kg/injection, schedule: Q04DX003 (ip), vehicle: saline with Tween-80 111 % of control
